From US10195578B2, “Peptide library production method, peptide library, and screening method” (The University of Tokyo, priority 2010, dated 2019) come the findings set out here.

Where a name gives a salt, the structure may show the parent alone. Where a SMILES comes first, the peptide text is derived from it. Bridges are numbered along the chain shown (N, C = ends). Where no end group is shown, it is not given here. [ ]: non-standard residue; d: D form. The star is where a group is joined. Tfa = O=C(C(F)(F)F)*

The target of the test is T1, SIRT2 (Homo sapiens, UniProt Q8IXJ6).
T1 sequence (Q8IXJ6 1-389): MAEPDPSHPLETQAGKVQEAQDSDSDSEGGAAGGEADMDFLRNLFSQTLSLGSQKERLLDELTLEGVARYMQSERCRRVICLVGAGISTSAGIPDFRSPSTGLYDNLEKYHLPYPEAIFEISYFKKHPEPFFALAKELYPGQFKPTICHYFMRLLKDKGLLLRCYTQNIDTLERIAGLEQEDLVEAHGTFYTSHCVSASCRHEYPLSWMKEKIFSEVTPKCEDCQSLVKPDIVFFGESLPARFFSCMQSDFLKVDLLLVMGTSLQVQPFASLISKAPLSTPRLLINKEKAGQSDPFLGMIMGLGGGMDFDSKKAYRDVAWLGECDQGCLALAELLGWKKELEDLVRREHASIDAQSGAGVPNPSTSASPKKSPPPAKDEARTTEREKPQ
Kind of test: Evaluation of inhibitory activity of peptides against SIRT2 (fluorescence-using system). It is filed as biochemical. The note with it: peptide at 1 μM; FIG. 3. The text has this: In an evaluation system using fluorescence, the inhibitory activity of the selected peptides against SIRT2 was studied. More specifically, first, peptides to be deacetylated with SIRT2 each having, at both ends thereof, a fluorescent group and a quenching group is deacetylated by mixing with SIRT2. When the resulting peptides are reacted with protease that cleaves only a deacetylated peptide, the quenching group is dissociated from the fluorescent group of only the peptides deacetylated with SIRT2 and fluorescence is emitted. During this deacetylation reaction, presence of an inhibitor against SIRT2 retards the progress of deacetylation of the substrate peptide and fluorescence intensity obtained in the end decreases. This means that the inhibitory ability of the selected peptides can be evaluated by the intensity of fluorescence observed in the end.
Regarding `CC[C@H](C)[C@@H]1NC(=O)[C@H](CCCNC(=N)N)NC(=O)[C@H](Cc2ccc(O)cc2)NC(=O)[C@H](CC(=O)O)NC(=O)[C@H](Cc2c[nH]cn2)NC(=O)[C@@H](Cc2ccc(O)cc2)NC(=O)CSC[C@@H](C(=O)NCC(=O)N[C@@H](CO)C(=O)NCC(=O)N[C@@H](CO)C(=O)NCC(=O)N[C@@H](CO)C(=O)O)NC(=O)[C@@H]2CCCN2C(=O)[C@H](Cc2ccc(O)cc2)NC(=O)[C@H]([C@@H](C)O)NC(=O)[C@H](Cc2c[nH]cn2)NC(=O)[C@H](Cc2ccc(O)cc2)NC(=O)[C@H](CCCNC(=N)N)NC(=O)[C@H](CCCCNC(=O)C(F)(F)F)NC1=O` [2D-08, XHDYRIZRYHTYPC] ({CH2CO}-[dY]HDYRIK(Tfa)RYHTYPCGSGSGS-OH; thioether N-14; N-terminus and C-terminus assumed), the “inhibitory ability against SIRT2 (activity of SIRT2, fluorescence intensity)” value (“inhibitory ability against SIRT2” below) is reported as “completely suppressed the activity of SIRT2”.

Consider `CC[C@H](C)[C@@H]1NC(=O)[C@H](CCCNC(=N)N)NC(=O)[C@H](Cc2ccccc2)NC(=O)[C@H](CC(N)=O)NC(=O)[C@H](CO)NC(=O)[C@H](Cc2ccc(O)cc2)NC(=O)CSC[C@@H](C(=O)NCC(=O)N[C@@H](CO)C(=O)NCC(=O)N[C@@H](CO)C(=O)NCC(=O)N[C@@H](CO)C(=O)O)NC(=O)[C@H](CO)NC(=O)[C@H](CO)NC(=O)[C@H](CC(N)=O)NC(=O)[C@H](CO)NC(=O)[C@H](Cc2ccc(O)cc2)NC(=O)[C@H](CCCNC(=N)N)NC(=O)[C@H](CCCCNC(=O)C(F)(F)F)NC1=O` [2L-08, XSNFRIZRYSNSSC] ({CH2CO}-YSNFRIK(Tfa)RYSNSSCGSGSGS-OH; thioether N-14; N-terminus and C-terminus assumed), for which the “inhibitory ability against SIRT2” value is “completely suppressed the activity of SIRT2”.

Regarding XHTYHNZRRTNYYC [2L-05], the “inhibitory ability against SIRT2” value is listed as “completely suppressed the activity of SIRT2”. For “XYNTIIZTYGC ({CH2CO}-[dY]YNTIIK(trifluoroacetyl)TYGCGSGSGS; thioether N-11 (inferred)) [2D-03, thioether-cyclized peptide from NNC library; X = α-N-chloroacetyl-D-tyrosine, Z = ε-N-trifluoroacetyllysine]” the value was “completely suppressed the activity of SIRT2”.
